Where two headings read alike, the source gives them in different places.
Legend:
[1] = test system: sulprostone-induced allodynic mice; experiment: Sulprostone-induced allodynia mouse model, paint brush stimulation pain score
male Sprague-Dawley rats = details: for sedation: graded 30 minutes after administration
Procedure: To test sedation, six male Sprague-Dawley rats are given various doses of a clonidine intrathecal injection. Sedation is graded 30 minutes following administration of the drug by monitoring locomotor skills as follows. Rats are placed in a dark covered chamber and a digicom analyzer (Omnitech Electronic) quantitates their exploratory behavior for a five-minute period. The machine records each time the rat interrupts an array of 32 photoelectric beams in the X and Y orientation, and quantifies the difference in behavior as compared to control animals given saline instead of clonidine.

[2] = test system: Chung model of allodynic rats; details: for analgesia (reversal of tactile allodynia): 30 minutes after administration
From the text: A model for chronic pain (in particular peripheral neuropathy) involves the surgical ligation of the L5 (and optionally the L6) spinal nerves on one side in experimental animals. Rats recovering from the surgery gain weight and display a level of general activity similar to that of normal rats. However, these rats develop abnormalities of the foot, wherein the hindpaw is moderately everted and the toes are held together. More importantly, the hindpaw on the side affected by the surgery appears to become sensitive to pain from low-threshold mechanical stimuli, such as that producing a faint sensation of touch in a human, within about 1 week following surgery. This sensitivity to normally non-painful touch is called “tactile allodynia” and lasts for at least two months. The response includes lifting the affected hindpaw to escape from the stimulus, licking the paw and holding it in the air for many seconds. None of these responses is normally seen in the control group.
Rats are anesthetized before surgery. The surgical site is shaved and prepared either with betadine or novacaine. Incision is made from the thoracic vertebra X111 down toward the sacrum. Muscle tissue is separated from the spinal vertebra (left side) at the L4-S2 levels. The L6 vertebra is located and the transverse process is carefully removed with a small rongeur to expose the L4-L6 spinal nerves. The L5 and L6 spinal nerves are isolated and tightly ligated with 6-0 silk thread. The same procedure is done on the right side as a control, except no ligation of the spinal nerves is performed.
A complete hemostasis is confirmed, then the wounds are sutured. A small amount of antibiotic ointment is applied to the incised area, and the rat is transferred to the recovery plastic cage under a regulated heat-temperature lamp. […]
In the Chung rat model, tactile allodynia is measured prior to and 30 minutes after drug administration using von Frey hairs that are a series of fine hairs with incremental differences in stiffness. […]

[3] = test system: intraocular pressure of male New Zealand rabbits; experiment: Normotensive intraocular pressure in rabbits after topical instillation (pneumatonometer); type: in vivo, rabbit
Procedure: Male New Zealand rabbits are used to evaluate drug effects on normotensive IOP measurements. The rabbits are carefully handled so as to minimize excitement. They should be picked up by the nape of the neck, with their hindlegs supported by the other hand. After removing the rabbit from its cage, approximately 25 ul of dilute OphtheticR (0.05%) topical anesthesia is administered to each eye. An initial IOP determination is made in both eyes. Rabbits with 3 mmHg or greater difference in IOP between right and left eyes are replaced at this time.
Immediately following the time zero (T=0) reading in both eyes, one eye of each experimental rabbit is instilled with an ophthalmic formulation of 0.1% (w/w) brimonidine tartrate onto the cornea of the randomly selected test eye. […] The other eye is given the vehicle containing no drug. The ophthalmic formulations comprise 50 ppm Purite®(stabilized chlorine dioxide), 0.5% carboxymethylcellulose, 0.6% (w/w) borate buffer (pH 7.7) and small amounts of salts (NaCl, KCl, CaCl2, MgCl2). Intraocular pressure of both treated (ipsalateral)and untreated (contralateral) eyes is measured at the indicated time intervals for seven hours. Pressure readings utilize a Model 30 Classic™ Pneumatonometer as the measuring and recording instrument. It measures intraocular pressure (IOP) non-invasively through applanation tonometry.

CS(=O)(=O)NC(=O)CCC/C=C\C[C@H]1C(=O)C[C@@H](O)[C@@H]1/C=C/[C@@H](O)COc1ccccc1 [sulprostone]
pain score ([1]; sulprostone 200 ng intrathecal alone, 16-point scale): 12-13

Clc1cccc(Cl)c1N=C1NCCN1 [clonidine]
sedation (male Sprague-Dawley rats; intrathecal dose of 3.0 μg): mildly sedating | sedation (male Sprague-Dawley rats; intrathecal dose of 10 μg): maximal sedation | separation between analgesia and sedation (male Sprague-Dawley rats; rats, intrathecal clonidine alone): 3-10 fold | analgesia (reversal of tactile allodynia) ([2]; intrathecal dose of 0.1 μg): no analgesia | analgesia (reversal of tactile allodynia) ([2]; intrathecal dose of 1.0 μg): maximal analgesia | analgesic activity, dose-dependent ([2]; rats, intrathecal): analgesic | shift of the effective analgesic dose lower versus clonidine alone ([1]; 5-methyl urapidil 30 μg/kg intraperitoneal 5 minutes before clonidine): 10 fold | pain score ([1]; clonidine 0.03 microgram intrathecal, prazosin given 15 minutes before): 13.3±0.9 | analgesia ([1]; clonidine 0.1 microgram intrathecal in the absence of prazosin): not analgesic | pain score ([1]; clonidine 0.1 microgram intrathecal, prazosin given 15 minutes before): 4.8±0.8 | pain score ([1]; clonidine 0.4 microgram intrathecal, prazosin given 15 minutes before): 4.8±0.6 | analgesia compared with intraperitoneal injection of the alpha 1 antagonist ([1]; clonidine (various doses) and 5-methylurapidil 1 microgram coadministered intrathecally): substantially similar | therapeutic window between pain and sedation ([1]; clonidine alone): 3-10 fold | therapeutic window between pain and sedation ([1]; clonidine co-administered with alpha 1 antagonist (5-methyl urapidil 30 μg/kg i.p.)): 30-100 fold | decrease in the EC50 for clonidine analgesia versus i.t. clonidine alone ([1]; coadministration of prazosin 100 ng/kg i.p.): four | analgesic activity, dose-dependent ([1]; mice, intrathecal): analgesic

COc1cc2nc(N3CCN(C(=O)c4ccco4)CC3)nc(N)c2cc1OC [prazosin]
intraocular pressure of treated eye compared to untreated eye ([3]; 35 microliters 0.003% prazosin alone (FIG. 4A)): small initial drop in intraocular pressure compared to the untreated eye, followed by a gradual increase in pressure

Brc1c(NC2=NCCN2)ccc2nccnc12 [brimonidine]
intraocular pressure ([3]; 0.1% brimonidine alone (FIG. 4B)): pronounced increase in intraocular pressure within the first 30 minutes, followed by a lowering of intraocular pressure thereafter | intraocular pressure, difference from brimonidine alone ([3]; 0.1% brimonidine and 0.001% prazosin (FIG. 4C)): Little difference | initial intraocular pressure ([3]; 0.1% brimonidine and 0.003% prazosine (FIG. 4D)): only a very small increase in initial intraocular pressure

CN(C)CCC=C1c2ccccc2CCc2ccccc21 [amitriplylene, amitriptylene]
reduction in the dosage necessary to achieve maximal analgesia ([1]; amitriptylene intrathecal with 30 ug/kg IP 5-methylurapadil versus with saline): approximately three
